Test results published in ChEMBL document CHEMBL4152224, “The Identification of Potent, Selective, and Orally Available Inhibitors of Ataxia Telangiectasia Mutated (ATM) Kinase: The Discovery of AZD0156 (8-{6-[3-(Dimethylamino)propoxy]pyridin-3-yl}-3-methyl-1-(tetrahydro-2 H-pyran-4-yl)-1,3-dihydro-2 H-imidazo[4,5- c]quinolin-2-one)” (J Med Chem, 2018).
≈ marks a conversion by molar mass, not a printed value.

Assays:
[1] = Buffer/octanol partition coefficient, log D of the compound at pH 7.4 by shake flask method; assay type: physicochemical
[2] = biological target: Voltage-gated inwardly rectifying potassium channel KCNH2 (Homo sapiens, UniProt Q12809); assay: Inhibition of human ERG by electrophysiology assay
Sequence of Voltage-gated inwardly rectifying potassium channel KCNH2 (Q12809 whole entry): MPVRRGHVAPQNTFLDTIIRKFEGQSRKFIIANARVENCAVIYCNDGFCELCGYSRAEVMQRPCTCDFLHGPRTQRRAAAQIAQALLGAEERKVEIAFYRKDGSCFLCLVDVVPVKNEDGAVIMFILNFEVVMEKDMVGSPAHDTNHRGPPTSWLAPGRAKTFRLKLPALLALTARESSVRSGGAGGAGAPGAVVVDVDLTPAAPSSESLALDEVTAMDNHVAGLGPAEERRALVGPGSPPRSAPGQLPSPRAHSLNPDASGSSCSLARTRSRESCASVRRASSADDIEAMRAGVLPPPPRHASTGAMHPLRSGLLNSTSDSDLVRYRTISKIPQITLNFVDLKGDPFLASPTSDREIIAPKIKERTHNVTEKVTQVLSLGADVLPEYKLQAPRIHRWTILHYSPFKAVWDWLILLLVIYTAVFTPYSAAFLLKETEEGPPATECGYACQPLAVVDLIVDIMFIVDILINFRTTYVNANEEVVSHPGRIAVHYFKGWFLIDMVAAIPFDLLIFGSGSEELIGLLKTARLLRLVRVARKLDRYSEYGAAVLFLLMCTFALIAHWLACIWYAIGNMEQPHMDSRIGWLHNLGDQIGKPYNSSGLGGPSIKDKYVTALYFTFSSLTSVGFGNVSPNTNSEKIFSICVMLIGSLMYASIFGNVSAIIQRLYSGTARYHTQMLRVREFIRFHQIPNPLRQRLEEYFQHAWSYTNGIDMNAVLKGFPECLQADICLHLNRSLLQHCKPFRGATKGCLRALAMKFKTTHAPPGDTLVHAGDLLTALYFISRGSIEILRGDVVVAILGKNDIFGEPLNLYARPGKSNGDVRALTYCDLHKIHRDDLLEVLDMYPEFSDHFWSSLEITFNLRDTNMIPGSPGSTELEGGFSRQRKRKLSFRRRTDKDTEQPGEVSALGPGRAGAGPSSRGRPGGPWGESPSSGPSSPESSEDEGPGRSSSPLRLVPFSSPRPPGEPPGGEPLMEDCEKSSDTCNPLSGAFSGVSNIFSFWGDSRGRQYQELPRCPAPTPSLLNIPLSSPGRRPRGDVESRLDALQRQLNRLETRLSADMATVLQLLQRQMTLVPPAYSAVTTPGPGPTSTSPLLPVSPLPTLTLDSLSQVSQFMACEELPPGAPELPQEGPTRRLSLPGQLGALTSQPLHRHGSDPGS

[3] = Intrinsic clearance in human hepatocytes assessed per million cells
[4] = Intrinsic clearance in rat hepatocytes assessed per million cells
[5] = in vivo; conditions: rat
[6] = biological target: T1, Serine-protein kinase ATM (Homo sapiens, UniProt Q13315)
T1 sequence (Q13315 whole entry): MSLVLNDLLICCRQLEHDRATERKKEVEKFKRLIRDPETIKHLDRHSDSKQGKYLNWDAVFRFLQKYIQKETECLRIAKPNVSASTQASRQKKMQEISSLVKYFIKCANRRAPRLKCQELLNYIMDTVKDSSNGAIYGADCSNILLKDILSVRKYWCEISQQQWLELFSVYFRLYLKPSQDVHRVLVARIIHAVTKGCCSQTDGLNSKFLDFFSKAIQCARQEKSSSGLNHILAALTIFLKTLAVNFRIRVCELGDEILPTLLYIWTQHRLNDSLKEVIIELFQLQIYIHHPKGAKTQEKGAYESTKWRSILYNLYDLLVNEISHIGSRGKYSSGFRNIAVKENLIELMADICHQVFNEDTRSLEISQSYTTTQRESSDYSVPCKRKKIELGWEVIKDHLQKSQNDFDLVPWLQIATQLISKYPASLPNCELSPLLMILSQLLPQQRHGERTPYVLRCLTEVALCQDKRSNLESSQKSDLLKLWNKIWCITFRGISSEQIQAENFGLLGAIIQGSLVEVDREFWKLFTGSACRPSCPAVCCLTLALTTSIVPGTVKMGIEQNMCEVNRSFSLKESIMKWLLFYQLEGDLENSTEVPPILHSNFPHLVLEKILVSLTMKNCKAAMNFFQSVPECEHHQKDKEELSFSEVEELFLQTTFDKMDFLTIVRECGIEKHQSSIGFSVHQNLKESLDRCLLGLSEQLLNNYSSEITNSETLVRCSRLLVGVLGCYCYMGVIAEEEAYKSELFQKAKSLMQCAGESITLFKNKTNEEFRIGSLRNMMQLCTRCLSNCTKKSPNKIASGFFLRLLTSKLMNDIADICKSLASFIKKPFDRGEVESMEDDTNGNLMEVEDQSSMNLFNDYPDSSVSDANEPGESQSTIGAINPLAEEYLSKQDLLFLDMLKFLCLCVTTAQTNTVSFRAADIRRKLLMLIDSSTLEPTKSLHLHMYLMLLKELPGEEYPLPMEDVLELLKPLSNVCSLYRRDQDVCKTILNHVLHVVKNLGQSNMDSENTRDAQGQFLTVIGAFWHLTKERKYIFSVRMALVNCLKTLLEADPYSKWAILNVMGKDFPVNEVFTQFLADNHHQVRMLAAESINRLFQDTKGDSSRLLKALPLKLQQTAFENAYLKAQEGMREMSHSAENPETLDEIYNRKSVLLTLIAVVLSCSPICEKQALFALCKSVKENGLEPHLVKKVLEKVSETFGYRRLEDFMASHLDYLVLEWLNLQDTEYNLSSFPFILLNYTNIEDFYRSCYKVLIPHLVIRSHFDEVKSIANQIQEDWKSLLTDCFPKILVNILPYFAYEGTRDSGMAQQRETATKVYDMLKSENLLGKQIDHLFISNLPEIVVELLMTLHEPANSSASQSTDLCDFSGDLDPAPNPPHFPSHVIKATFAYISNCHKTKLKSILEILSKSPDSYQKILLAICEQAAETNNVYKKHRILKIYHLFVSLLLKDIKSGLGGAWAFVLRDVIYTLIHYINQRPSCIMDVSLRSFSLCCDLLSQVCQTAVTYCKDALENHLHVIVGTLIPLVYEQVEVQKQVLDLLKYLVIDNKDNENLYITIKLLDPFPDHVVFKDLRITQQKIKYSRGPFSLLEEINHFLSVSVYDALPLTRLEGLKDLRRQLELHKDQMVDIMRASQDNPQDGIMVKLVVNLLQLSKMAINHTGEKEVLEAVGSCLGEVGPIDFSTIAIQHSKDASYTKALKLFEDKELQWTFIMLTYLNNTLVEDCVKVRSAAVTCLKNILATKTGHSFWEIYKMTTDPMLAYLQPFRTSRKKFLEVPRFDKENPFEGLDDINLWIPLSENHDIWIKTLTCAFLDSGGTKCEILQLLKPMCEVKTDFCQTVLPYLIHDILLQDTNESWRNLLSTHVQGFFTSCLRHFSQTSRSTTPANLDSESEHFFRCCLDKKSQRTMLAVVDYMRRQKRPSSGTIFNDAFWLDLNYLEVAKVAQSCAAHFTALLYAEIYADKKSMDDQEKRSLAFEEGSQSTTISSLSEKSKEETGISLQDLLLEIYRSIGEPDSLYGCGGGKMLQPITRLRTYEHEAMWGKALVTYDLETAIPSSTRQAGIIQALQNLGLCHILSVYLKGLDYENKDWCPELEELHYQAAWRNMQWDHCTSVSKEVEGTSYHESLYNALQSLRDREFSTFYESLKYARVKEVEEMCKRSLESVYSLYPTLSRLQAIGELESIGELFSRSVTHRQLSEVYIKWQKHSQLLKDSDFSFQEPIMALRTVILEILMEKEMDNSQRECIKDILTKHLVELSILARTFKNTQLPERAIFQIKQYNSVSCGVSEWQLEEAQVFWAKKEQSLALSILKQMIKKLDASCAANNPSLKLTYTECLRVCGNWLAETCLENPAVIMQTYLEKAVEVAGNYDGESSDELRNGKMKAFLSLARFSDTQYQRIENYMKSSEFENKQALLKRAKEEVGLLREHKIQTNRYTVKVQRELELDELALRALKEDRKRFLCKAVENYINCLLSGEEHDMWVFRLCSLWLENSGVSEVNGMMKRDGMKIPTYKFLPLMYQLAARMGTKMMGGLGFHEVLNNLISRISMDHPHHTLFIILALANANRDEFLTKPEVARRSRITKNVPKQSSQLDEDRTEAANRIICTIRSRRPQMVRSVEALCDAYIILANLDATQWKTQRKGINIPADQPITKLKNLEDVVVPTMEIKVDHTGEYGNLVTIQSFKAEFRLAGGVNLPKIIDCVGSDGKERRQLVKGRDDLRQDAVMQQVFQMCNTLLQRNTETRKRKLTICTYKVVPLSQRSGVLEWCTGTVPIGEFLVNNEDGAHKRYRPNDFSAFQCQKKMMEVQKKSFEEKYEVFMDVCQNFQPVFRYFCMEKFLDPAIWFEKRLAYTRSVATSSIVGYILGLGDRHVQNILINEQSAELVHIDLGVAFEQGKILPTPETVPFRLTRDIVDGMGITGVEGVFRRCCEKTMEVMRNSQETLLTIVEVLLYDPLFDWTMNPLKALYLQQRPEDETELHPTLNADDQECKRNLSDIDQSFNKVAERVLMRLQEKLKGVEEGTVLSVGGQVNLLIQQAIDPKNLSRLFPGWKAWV

[7] = in vivo; conditions: rat; remark: listed apart in the source
[8] = Oral bioavailability in rat; assay type: ADME, organism-based; conditions: in vivo
[9] = Apparent permeability across apical to basolateral side in MDCK cells overexpressing MDR1; assay type: ADME, cell-based, Canis lupus familiaris; conditions: dog
[10] = Thermodynamic solubility of the compound in 0.1M aqueous phosphate buffer at pH 7.4 after 24 hrs by LC-UV analysis; assay type: physicochemical; conditions: read-out: Therm_solubility
[11] = Volume of distribution at steady state in rat; assay type: ADME, organism-based; conditions: in vivo, read-out: Vdss
[12] = biological target: Serine/threonine-protein kinase ATR (Homo sapiens, UniProt Q13535)
[13] = in vitro; conditions: dog, MDCK-MDR1
Description: Efflux ratio of apparent permeability across basolateral to apical over apical to basolateral side in MDCK cells overexpressing MDR1

[14] = Dissociation constant, pKa of the compound; assay type: physicochemical
[15] = Apparent permeability across apical to basolateral side in human Caco2 cells; assay type: ADME, cell-based; conditions: Caco-2
[16] = organism: Homo sapiens; assay: Selectivity ratio of IC50 for DNA-PK derived from human HeLa cells to IC50 for ATM derived from human HeLa cell nuclear extract
[17] = organism: Homo sapiens; assay: Selectivity ratio of IC50 for PI3K derived from human HeLa cells to IC50 for ATM derived from human HeLa cell nuclear extract
[18] = biological target: T1, Serine-protein kinase ATM; assay: Inhibition of ATM derived from human HeLa cell nuclear extract using glutathione S-transferase p53N66 as substrate preincubated for 10 mins followed by ATP addition and subsequent incubation for 1 hr measured after 1.5 hrs by ELISA
[19] = organism: Homo sapiens; assay: Selectivity ratio of IC50 for ATR derived from human HeLa cell cytoplasmic extract to IC50 for ATM derived from human HeLa cell nuclear extract
[20] = organism: Homo sapiens; assay: Selectivity ratio of IC50 for mTOR derived from human HeLa cells to IC50 for ATM derived from human HeLa cell nuclear extract

SMILES	logD [1]	IC50 [2] [µM]	hepatocyte CLint [3] [µL/min/1e6 cells]	hepatocyte CLint [4] [µL/min/1e6 cells]	clearance [5] [mL/min/kg]	IC50 [6] [nM]	half-life [7] [min]	bioavailability [8] [%]	Papp A→B [9] [×10⁻⁶ cm/s]	solubility thermodynamic at 24 h [10] [µM]	Vd [11] [L/kg]	IC50 [12] [µM]	efflux ratio [13]	pKa [14]	Papp A→B [15] [×10⁻⁶ cm/s]	Ratio IC50 [16]	Ratio IC50 [17]	IC50 [18] [nM]	Ratio IC50 [19]	Ratio IC50 [20]
COCc1ccc(-c2cc3c(cc2F)ncc2c3n([C@H]3C[C@@H](OC)C3)c(=O)n2C)cn1	2.7	9	8.8	4.5	22.5	100	162	> 100	38	37 (≈ 15.6 µg/mL)	0.98	> 30	0.4							
CO[C@H]1C[C@@H](n2c(=O)n(C)c3cnc4cc(F)c(-c5ccc(OCCN(C)C)nc5)cc4c32)C1	2	> 33	8.3	12		23			16	> 1000		> 30	1.6	8.5						
Cn1c(=O)n(C2CCOCC2)c2c3cc(-c4cccnc4)ccc3ncc21	2.2	11	< 4.9	9.4					30	17 (≈ 6.13 µg/mL)					60					
CN1CCN(CCC(=O)Nc2ccc3c(c2)Sc2cccc(-c4cc(=O)cc(N5CCOCC5)o4)c2S3)CC1																> 300	> 300	3	> 300	> 300
